Results as given in patent US20100105602A1, “TREATMENT OF INT[…] INFECTIONS” (Novozymes A/S, priority 2008, published 2010).

Legend:
[1] = tested on: Staphylococcus aureus ATCC25923 (MSSA) in THP-1 macrophages; test: In vitro intracellular activity in infected THP-1 macrophages, S. aureus ATCC25923; assay type: cell-based; conditions: for Emax (95% CI): decrease in log CFU after 24 hours compared to original inoculum
Procedure: (§1) For studies of Plectasin, two strains of S. aureus were applied: ATCC25923 (MSSA) and E33235 (MSSA, axil, clinical isolate from Statens Serum Institute, Denmark).
(§2) For studies of Defensin2114, […] of S. aureus were used: ATCC25923 (MSSA), MRSA (clinical septicaemia isolate, Statens Serum Institute, ref. no. 1-15479) and VRSA2 (Pennsylvania HIP 11983).
(§3) Overnight culture of bacteria was opsonized for 45 min with human serum (AB positive, Lonza, USA). Afterwards the bacteria were tittered using a spectrophotometer (CECIL 2040) and THP-1 macrophages were counted and then infected with 4 bacteria/cell. THP-1 cells were cultured in RPMI 1640 medium supplemented with fetal calf serum.
(§4) The bacteria were incubated with cells for 1 hour at 37° C., CO2 5%, to allow phagocytosis.
(§5) After 1 hour of incubation the infected cells were incubated 45 min with Gentamicin (50 micrograms/mL) to eradicate remaining non-phagocytosed bacteria. To remove Gentamicin after incubation cells were washed 3× with PBS. After the third wash, cells were re-suspended in RPMI 1640 medium (+10% fetal calf serum) and Plectasin or Defensin2114 was added at desired concentrations (0-128×MIC). One sample was incubated with Gentamicin at 1×MIC for control of intracellular growth. In studies of Defensin2114 the activity was compared to that of vancomycin and daptomycin.
(§6) Cells were incubated in 6-well plates for 24 hours at 37° C., CO2 5%.
(§7) After incubation cells were washed in PBS and subsequently re-suspended in sterile water to release intracellular bacteria.
(§8) Samples were diluted regarding to the expected amount of CFU and spread on TSA plates and incubated at 35° C. overnight. After 24 hours incubation the CFU were counted.
(§9) The samples may be stored at −20° C. for up to one week. Samples were sonicated and proteins titered as described by Lowry et al. hereby obtaining results as CFU/mg protein. All samples were tested in triplicates.
(§10) In vitro intracellular dose-response studies: For analysis of dose-effect relationships, the Hill-equation (slope=1) was employed to calculate the maximal relative efficacy, Emax, static concentration (Cstatic) and goodness-of-fit. These parameters were determined using non-linear regression.

[2] = tested on: Staphylococcus aureus MRSA (1-15479) in THP-1 macrophages; test: In vitro intracellular activity in infected THP-1 macrophages, MRSA (1-15479); assay type: cell-based; conditions: for Cstatic / Emax (95% CI): MRSA (1-15479), THP-1 macrophages, 24 hours
Procedure: as §2, §3, §4, §5, §6, §7, §8, §9, §10

[3] = tested on: Staphylococcus aureus VRSA2 (Pennsylvania HIP 11983) in THP-1 macrophages; test: In vitro intracellular activity in infected THP-1 macrophages, VRSA2; assay type: cell-based; conditions: for Cstatic / Emax (95% CI): VRSA2, THP-1 macrophages, 24 hours
Procedure: as §2, §3, §4, §5, §6, §7, §8, §9, §10

[4] = tested on: Staphylococcus aureus E33235; test: Mouse peritonitis model, intra- and extracellular effect; assay type: in vivo, mice
Procedure: This Example presents an in vivo study of the efficacy of Plectasin against intracellular Staphylococcus aureus E33235 in an animal model of infection (peritonitis), including assessment of both intra- and extracellular effect. Staphylococcus aureus E33235 is a clinically isolated strain obtainable from Statens Serum Institut, Denmark.
Staphylococcus aureus E33235 was spread on 5% blood plates and incubated overnight at 37° C. at ambient air. A 10% w/v Mucin solution was prepared in NaCl. The solution was sterilized and pH adjusted to pH 7.0.
Colonies of Staphylococcus aureus were suspended in saline to approx. 10^8 CFU/mL (OD=0.13). A 1:1 dilution with the 10% Mucin stock solution was prepared making a solution of 5% Mucin and 5×10^7 CFU/mL.
A solution of 50 mg/mL lysostaphin was prepared in HBSS (Hanks Balanced Salt Solution).
Two hours before treatment (T=0) the mice were inoculated i.p. with 0.5 mL Staphylococcus aureus suspension (with 5% Mucin).
The injected dose volume was 0.6 or 0.3 mL/animal. The first dose was injected two hours after inoculation (T=2).
At T=2 and T=6 hours control animals were sacrificed and peritoneal wash performed. 24 hours after first treatment, the remaining treated animals were sacrificed. Peritoneal wash was performed after sacrifice of animals by cervical dislocation.
Negative control (cell free): Inoculum at 10^8 CFU/mL of S. aureus E 33235 (OD=0.13) in saline was prepared just before the last separation assay of the day. The negative control was handled exactly as the test samples. Microscopy and cell-count of the negative control are not shown. Each sample was handled as described in Table 6.
CFU counts from peritoneal fluid from treated animals were compared to PK/PD parameters to assess the correlation between intra- and extracellular effect of Plectasin to Cpeak, T>MIC and AUC/MIC.
Correlation (Hills) between the most predictive PK/PD-parameter. Effect was determined as the decrease in CFU in the peritoneal fluid 24 hours after the first treatment. Parameters were estimated by multiple regression analysis.

[5] = Kinetics study, serum, and PK/PD parameters of dosing regimens; assay type: in vivo, mice; parameters: AUC(free) / Peak / Cpeak: unit not given here; conditions: for AUC(free): free serum concentrations
Procedure: Animals were dosed from 4.25-34 mg/kg
The serum was separated and stored at −20° C. until analysis by LCMSMS using internal and external standards. Serum binding was calculated to 90%.
Pharmacokinetic parameters were determined through intrapolation from free serum concentrations using GraphPad Prism.

[6] = tested on: Staphylococcus aureus E33235 (MSSA) in THP-1 macrophages; test: In vitro intracellular activity in infected THP-1 macrophages, S. aureus E33235; assay type: cell-based; conditions: S. aureus E33235, THP-1 macrophages, 24 hours
Procedure: as §1, §3, §4
After 1 hour of incubation the infected cells were incubated 45 min with Gentamicin (50 micrograms/mL) to eradicate remaining non-phagocytosed bacteria. To remove Gentamicin after incubation cells were washed 3× with PBS. […]
Samples were diluted regarding to the expected amount of CFU and spread on TSA plates and incubated at 35° C. overnight. After 24 hours incubation the CFU were counted. […]
as §10

[7] = S. aureus ATCC25923, THP-1 macrophages, 24 hours, no apparent growth
[8] = S. aureus ATCC25923, THP-1 macrophages
[9] = S. aureus ATCC25923, THP-1 macrophages, 24 hours, Table 1
[10] = b.i.d. treatment with 34 mg/kg, peritoneal fluid, 24 hours after first treatment

For CN[C@H](CC(C)C)C(=O)N[C@H]1C(=O)N[C@@H](CC(N)=O)C(=O)N[C@H]2C(=O)N[C@H]3C(=O)N[C@H](C(=O)N[C@H](C(=O)O)c4cc(O)cc(O)c4-c4cc3ccc4O)[C@H](O)c3ccc(c(Cl)c3)Oc3cc2cc(c3O[C@@H]2O[C@H](CO)[C@@H](O)[C@H](O)[C@H]2O[C@H]2C[C@](C)(N)[C@H](O)[C@H](C)O2)Oc2ccc(cc2Cl)[C@H]1O [Vancomycin, reference compound], the Cstatic [1, 7] was 2.9 ×MIC, the “Emax (95% CI)” value [1, 8] was −0.64 log CFU and the Cstatic [2] was 6.2 ×MIC. For the same molecule, the “Emax (95% CI)” value [2] was −0.66 log CFU.
For CCCCCCCCCC(=O)N[C@@H](Cc1c[nH]c2ccccc12)C(=O)N[C@H](CC(N)=O)C(=O)N[C@@H](CC(=O)O)C(=O)N[C@@H]1C(=O)NCC(=O)N[C@@H](CCCN)C(=O)N[C@@H](CC(=O)O)C(=O)N[C@H](C)C(=O)N[C@@H](CC(=O)O)C(=O)NCC(=O)N[C@H](CO)C(=O)N[C@@H]([C@H](C)CC(=O)O)C(=O)N[C@@H](CC(=O)c2ccccc2N)C(=O)O[C@@H]1C [Daptomycin, reference compound], the Cstatic [1, 7] was 0.6 ×MIC, the “Emax (95% CI)” value [1, 8] was −1.00 log CFU and the Cstatic [2] was 1.8 ×MIC. The “Emax (95% CI)” value [2] was −0.85 log CFU, the Cstatic [3] was 1.3 ×MIC and the “Emax (95% CI)” value [3] was −0.29 log CFU.
In the case of “Defensin2114: defensin polypeptide shown as SEQ ID NO: 1; synthetic defensin derived from Plectasin (GFGCNGPWNEDDLRCHNHCKSIKGYKGGYCAKGGFVCKCY)”, the “Emax comparison, one-way ANOVA (Tukeys test)” value (“Emax comparison, one-way ANOVA” below) ([1]; ATCC25923) was “significantly lower Emax value than both daptomycin and vancomycin”, the Cstatic [1, 7] was 0.8 ×MIC and the “Emax (95% CI)” value [1, 8] was −1.51 log CFU. For the same molecule, the Cstatic [2] was 1.1 ×MIC, the “Emax (95% CI)” value [2] was −0.93 log CFU and the “Emax comparison, one-way ANOVA” value ([2]; MRSA, P<0.01) was “significantly lower Emax value than vancomycin”. The “Emax comparison, one-way ANOVA” value ([3]; VRSA) was “No difference in Emax value between Defensin2114 and daptomycin”, the Cstatic [3] was 2.3 ×MIC and the “Emax (95% CI)” value [3] was −0.22 log CFU.
For CC[C@H](C)[C@@H]1NC(=O)[C@H](CO)NC(=O)[C@H](CCCCN)NC(=O)[C@@H]2CSSC[C@@H](C(=O)N[C@@H](Cc3ccc(O)cc3)C(=O)O)NC(=O)[C@H](CCCCN)NC(=O)[C@@H]3CSSC[C@H](NC(=O)[C@H](CCC(N)=O)NC(=O)[C@H](CCSC)NC(=O)[C@H](CC(=O)O)NC(=O)[C@H](CC(=O)O)NC(=O)[C@H](CCC(=O)O)NC(=O)[C@H](CC(=O)O)NC(=O)[C@H](Cc4c[nH]c5ccccc45)NC(=O)[C@@H]4CCCN4C(=O)CNC(=O)[C@H](CC(N)=O)NC(=O)[C@@H](NC(=O)CNC(=O)[C@H](Cc4ccccc4)NC(=O)CN)CSSC[C@H](NC(=O)[C@H](Cc4ccc(O)cc4)NC(=O)CNC(=O)CNC(=O)[C@H](CCCCN)NC(=O)[C@H](Cc4ccc(O)cc4)NC(=O)CNC(=O)[C@H](CCCCN)NC1=O)C(=O)N[C@@H](C)C(=O)N[C@@H](CCCCN)C(=O)NCC(=O)NCC(=O)N[C@@H](Cc1ccccc1)C(=O)N[C@@H](C(C)C)C(=O)N3)C(=O)N[C@@H](Cc1c[nH]cn1)C(=O)N[C@@H](CC(N)=O)C(=O)N[C@@H](Cc1c[nH]cn1)C(=O)N2 [Plectasin], the Cstatic [1, 9] was 0.6 ×MIC, the “Emax (CI)” value [1, 9] was −1.35 log CFU and the “Max Δ log Decrease in CFU Extracellularly” value [4, 10] was −2.55 (SD: 0.150) Δ log. The “Max Δ log Decrease in CFU Intracellularly” value [4, 10] was −1.25 (SD: 0.058) Δ log, the “effect in the mouse peritonitis model” value ([4]; s.c. treatment, S. aureus E33235 i.p.) was “showed both intra- and extracellular effect” and the Peak ([5]; dose 4.25 mg/kg) was 1.61. The “AUC(free)” value ([5]; dose 4.25 mg/kg) was 1.901, the Peak ([5]; dose 8.5 mg/kg) was 2.32 and the “AUC(free)” value ([5]; dose 8.5 mg/kg) was 3.955. For the same molecule, the Peak ([5]; dose 17 mg/kg) was 4.95, the “AUC(free)” value ([5]; dose 17 mg/kg) was 8 and the Peak ([5]; dose 34 mg/kg) was 5.99. For the same molecule, the “AUC(free)” value ([5]; dose 34 mg/kg) was 13.25, the fraction unbound ([5]; mouse, serum, LCMSMS, read-out: Serum binding (converted)) was 0.1 and the Cpeak ([5]; regimen 1: 34 mg/kg, 1 dose in 24 hours) was 5.99. It also gave a Cpeak ([5]; regimen 2: 17 mg/kg, 1 dose in 24 hours) of 4.95, a Cpeak ([5]; regimen 3: 8.5 mg/kg, 1 dose in 24 hours) of 2.32 and a Cpeak ([5]; regimen 4: 4.25 mg/kg, 1 dose in 24 hours) of 1.61. For the same molecule, the Cpeak ([5]; regimen 5: 17 mg/kg, 2 doses in 24 hours) was 5.99, the Cpeak ([5]; regimen 6: 8.5 mg/kg, 2 doses in 24 hours) was 2.32 and the Cpeak ([5]; regimen 7: 34 mg/kg, 3 doses in 24 hours) was 5.99. It also gave a Cpeak ([5]; regimen 8: 4.25 mg/kg, 3 doses in 24 hours) of 1.61, a Cpeak ([5]; regimen 9: 8.5 mg/kg, 4 doses in 24 hours) of 2.32 and a Cpeak ([5]; regimen 10: 8.5 mg/kg, 6 doses in 24 hours) of 2.32. The Cstatic [6] was 0.6 ×MIC and the “Emax (CI)” value [6] was −0.97 log CFU.
